Assay results published in US6525001B1, “Substituted pyrimidine and pyridine herbicides” (Mid-American Commercialization Corporation, priority 1997, dated 2003).

Legend:
Type in all cases: in vivo
Set-up in all cases: key: 0 is no effect; 10 is complete control
[1] = system: pigweed (Amaranthus retroflexus); assay: Test B pre-/postemergence
Method in brief: (§1)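 Response scores run from 0, meaning no effect, to 10, meaning complete control, assigned by eye relative to controls twelve to sixteen days after spraying. Treatment was both preemergence on planted seed and postemergence on plants at the 1- to 4-leaf stage.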

wild oat (Avena fatua) = assay: Test B pre-/postemergence
Method in brief: as §1

[2] = system: sugar beet (Beta vulgaris); assay: Test B pre-/postemergence
Method in brief: as §1

[3] = system: crabgrass (Digitaria sanguinalis); assay: Test B pre-/postemergence
Method in brief: as §1

[4] = system: blackgrass (Alopecurus myosuroides); assay: Test B pre-/postemergence
Method in brief: as §1

[5] = system: bedstraw (Galium aparine); assay: Test B pre-/postemergence
Method in brief: as §1

[6] = system: broadleaf signalgrass (Brachiaria decumbens); assay: Test B pre-/postemergence
Method in brief: as §1

[7] = system: purple nutsedge (Cyperus rotundus); assay: Test B pre-/postemergence
Method in brief: as §1

[8] = system: giant foxtail (Setaria faberii); assay: Test B pre-/postemergence
Method in brief: as §1

[9] = system: momingglory (Ipomoea hederacea); assay: Test B pre-/postemergence
Method in brief: as §1

rape (Brassica napus) = assay: Test B pre-/postemergence
Method in brief: as §1

[10] = system: wheat (Triticum aestivum); assay: Test B pre-/postemergence
Method in brief: as §1

[11] = system: velvetleaf (Abutilon theophrasti); assay: Test B pre-/postemergence
Method in brief: as §1

soybean (Glycine max) = assay: Test B pre-/postemergence
Method in brief: as §1

[12] = system: cocklebur (Xanthium strumarium); assay: Test B pre-/postemergence
Method in brief: as §1

corn (Zea mays) = assay: Test B pre-/postemergence
Method in brief: as §1

rice (Oryza sativa) = assay: Test B flood test
Method in brief: (§2)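 Each value is a visual injury score relative to controls, with 10 meaning complete control and 0 no effect. Evaluation took place twelve to sixteen days after the 2-leaf-stage plants were treated and kept in the greenhouse.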

[13] = system: bamyardgrass (Echinochloa crus-galli); assay: Test B flood test
Method in brief: as §2

[14] = system: duck salad (Heteranthera limosa); assay: Test B flood test
Method in brief: as §2

[15] = system: smallflower flatsedge (Cyperus difformis); assay: Test B flood test
Method in brief: as §2

[16] = Preemergence, Rate 62 g/ha, scale of 0 to 10
[17] = Rate 62 g/ha, Postemergence (flood test)
[18] = Rate 125 g/ha, Postemergence section (flood test species)
[19] = Rate 250 g/ha, Postemergence (flood test species)

Structure (SMILES): O=C(c1cccc(C(F)(F)F)c1)c1ccnc(-n2ccc(C(F)(F)F)n2)n1 [Compound 70]
- Plant response rating, Redroot pigweed [1, 16]: 0
- Redroot pigweed plant response rating ([1]; Rate 62 g/ha, Postemergence): 0
- Redroot pigweed plant response rating ([1]; Rate 125 g/ha, Postemergence): 2
- Plant response rating, Redroot pigweed ([1]; Rate 125 g/ha, Preemergence): 0
- Plant response rating, Redroot pigweed ([1]; Rate 250 g/ha, Postemergence): 3
- Plant response rating, Redroot pigweed ([1]; Rate 250 g/ha, Preemergence): 0
- Plant response rating, Wild oats (wild oat (Avena fatua); [16]): 0
- Wild oats plant response rating (wild oat (Avena fatua); Rate 62 g/ha, Postemergence): 0
- Wild oats plant response rating (wild oat (Avena fatua); Rate 125 g/ha, Postemergence): 0
- Plant response rating, Wild oats (wild oat (Avena fatua); Rate 125 g/ha, Preemergence): 0
- Plant response rating, Wild oats (wild oat (Avena fatua); Rate 250 g/ha, Postemergence): 0
- Plant response rating, Wild oats (wild oat (Avena fatua); Rate 250 g/ha, Preemergence): 0
- Plant response rating, Sugarbeets [2, 16]: 0
- Sugarbeets plant response rating ([2]; Rate 62 g/ha, Postemergence): 0
- Sugarbeets plant response rating ([2]; Rate 125 g/ha, Postemergence): 1
- Plant response rating, Sugarbeets ([2]; Rate 125 g/ha, Preemergence): 0
- Plant response rating, Sugarbeets ([2]; Rate 250 g/ha, Postemergence): 2
- Plant response rating, Sugarbeets ([2]; Rate 250 g/ha, Preemergence): 0
- Plant response rating, Crabgrass [3, 16]: 0
- Crabgrass plant response rating ([3]; Rate 62 g/ha, Postemergence): 0
- Crabgrass plant response rating ([3]; Rate 125 g/ha, Postemergence): 1
- Plant response rating, Crabgrass ([3]; Rate 125 g/ha, Preemergence): 0
- Plant response rating, Crabgrass ([3]; Rate 250 g/ha, Postemergence): 1
- Plant response rating, Crabgrass ([3]; Rate 250 g/ha, Preemergence): 0
- Plant response rating, Blackgrass [4, 16]: 0
- Blackgrass plant response rating ([4]; Rate 62 g/ha, Postemergence): 0
- Blackgrass plant response rating ([4]; Rate 125 g/ha, Postemergence): 0
- Plant response rating, Blackgrass ([4]; Rate 125 g/ha, Preemergence): 0
- Plant response rating, Blackgrass ([4]; Rate 250 g/ha, Postemergence): 0
- Plant response rating, Blackgrass ([4]; Rate 250 g/ha, Preemergence): 0
- Plant response rating, Bedstraw [5, 16]: 0
- Bedstraw plant response rating ([5]; Rate 62 g/ha, Postemergence): 1
- Bedstraw plant response rating ([5]; Rate 125 g/ha, Postemergence): 1
- Plant response rating, Bedstraw ([5]; Rate 125 g/ha, Preemergence): 0
- Plant response rating, Bedstraw ([5]; Rate 250 g/ha, Postemergence): 1
- Plant response rating, Bedstraw ([5]; Rate 250 g/ha, Preemergence): 0
- B. signalgrass plant response rating ([6]; Rate 62 g/ha, Postemergence): 0
- B. signalgrass plant response rating ([6]; Rate 62 g/ha, Preemergence): 0
- B. signalgrass plant response rating ([6]; Rate 125 g/ha, Postemergence): 0
- Plant response rating, B. signalgrass ([6]; Rate 125 g/ha, Preemergence): 0
- Plant response rating, B. signalgrass ([6]; Rate 250 g/ha, Postemergence): 1
- Plant response rating, B. signalgrass ([6]; Rate 250 g/ha, Preemergence): 0
- Plant response rating, Nutsedge [7, 16]: 0
- Nutsedge plant response rating ([7]; Rate 62 g/ha, Postemergence): 0
- Nutsedge plant response rating ([7]; Rate 125 g/ha, Postemergence): 0
- Plant response rating, Nutsedge ([7]; Rate 125 g/ha, Preemergence): 0
- Plant response rating, Nutsedge ([7]; Rate 250 g/ha, Postemergence): 0
- Plant response rating, Giant foxtail [8, 16]: 0
- Giant foxtail plant response rating ([8]; Rate 62 g/ha, Postemergence): 0
- Giant foxtail plant response rating ([8]; Rate 125 g/ha, Postemergence): 0
- Plant response rating, Giant foxtail ([8]; Rate 125 g/ha, Preemergence): 0
- Plant response rating, Giant foxtail ([8]; Rate 250 g/ha, Postemergence): 0
- Plant response rating, Giant foxtail ([8]; Rate 250 g/ha, Preemergence): 0
- Plant response rating, Morningglory [9, 16]: 0
- Morningglory plant response rating ([9]; Rate 62 g/ha, Postemergence): 1
- Morningglory plant response rating ([9]; Rate 125 g/ha, Postemergence): 1
- Plant response rating, Morningglory ([9]; Rate 125 g/ha, Preemergence): 0
- Plant response rating, Morningglory ([9]; Rate 250 g/ha, Postemergence): 2
- Plant response rating, Morningglory ([9]; Rate 250 g/ha, Preemergence): 0
- Plant response rating, Rape (rape (Brassica napus); [16]): 0
- Rape plant response rating (rape (Brassica napus); Rate 62 g/ha, Postemergence): 0
- Rape plant response rating (rape (Brassica napus); Rate 125 g/ha, Postemergence): 1
- Plant response rating, Rape (rape (Brassica napus); Rate 125 g/ha, Preemergence): 0
- Plant response rating, Rape (rape (Brassica napus); Rate 250 g/ha, Postemergence): 1
- Plant response rating, Rape (rape (Brassica napus); Rate 250 g/ha, Preemergence): 0
- Plant response rating, Wheat [10, 16]: 0
- Wheat plant response rating ([10]; Rate 62 g/ha, Postemergence): 0
- Wheat plant response rating ([10]; Rate 125 g/ha, Postemergence): 0
- Plant response rating, Wheat ([10]; Rate 125 g/ha, Preemergence): 0
- Plant response rating, Wheat ([10]; Rate 250 g/ha, Postemergence): 0
- Plant response rating, Wheat ([10]; Rate 250 g/ha, Preemergence): 0
- Plant response rating, Velvetleaf [11, 16]: 0
- Velvetleaf plant response rating ([11]; Rate 62 g/ha, Postemergence): 0
- Velvetleaf plant response rating ([11]; Rate 125 g/ha, Postemergence): 1
- Plant response rating, Velvetleaf ([11]; Rate 125 g/ha, Preemergence): 0
- Plant response rating, Velvetleaf ([11]; Rate 250 g/ha, Postemergence): 1
- Plant response rating, Velvetleaf ([11]; Rate 250 g/ha, Preemergence): 0
- Plant response rating, Soybean (soybean (Glycine max); [16]): 0
- Soybean plant response rating (soybean (Glycine max); Rate 62 g/ha, Postemergence): 1
- Soybean plant response rating (soybean (Glycine max); Rate 125 g/ha, Postemergence): 2
- Plant response rating, Soybean (soybean (Glycine max); Rate 125 g/ha, Preemergence): 0
- Plant response rating, Soybean (soybean (Glycine max); Rate 250 g/ha, Postemergence): 3
- Plant response rating, Soybean (soybean (Glycine max); Rate 250 g/ha, Preemergence): 0
- Plant response rating, Cocklebur [12, 16]: 0
- Cocklebur plant response rating ([12]; Rate 62 g/ha, Postemergence): 1
- Cocklebur plant response rating ([12]; Rate 125 g/ha, Postemergence): 2
- Plant response rating, Cocklebur ([12]; Rate 125 g/ha, Preemergence): 0
- Plant response rating, Cocklebur ([12]; Rate 250 g/ha, Postemergence): 2
- Plant response rating, Cocklebur ([12]; Rate 250 g/ha, Preemergence): 0
- Plant response rating, Corn (corn (Zea mays); [16]): 0
- Corn plant response rating (corn (Zea mays); Rate 62 g/ha, Postemergence): 1
- Corn plant response rating (corn (Zea mays); Rate 125 g/ha, Postemergence): 1
- Plant response rating, Corn (corn (Zea mays); Rate 125 g/ha, Preemergence): 0
- Plant response rating, Corn (corn (Zea mays); Rate 250 g/ha, Postemergence): 2
- Plant response rating, Corn (corn (Zea mays); Rate 250 g/ha, Preemergence): 0
- Rice plant response rating (rice (Oryza sativa); [17]): 0
- Rice plant response rating (rice (Oryza sativa); [18]): 0
- Plant response rating, Rice (rice (Oryza sativa); [19]): 0
- Barnyardgrass plant response rating [13, 17]: 0
- Barnyardgrass plant response rating [13, 18]: 0
- Plant response rating, Barnyardgrass [13, 19]: 0
- Ducksalad plant response rating [14, 17]: 0
- Ducksalad plant response rating [14, 18]: 0
- Plant response rating, Ducksalad [14, 19]: 0
- S. Flatsedge plant response rating [15, 17]: 0
- S. Flatsedge plant response rating [15, 18]: 0
- Plant response rating, S. Flatsedge [15, 19]: 0
